Results: patent US20260345723A1, “Treatments for Opioid-Induced Respiratory Depression” (priority 2023, published 2026)
Like-named read-outs stand apart in the source and are kept apart here.

Experiments:
pain pathways = conditions: cited from earlier work
[1] = type: in vivo, Rhesus macaque (Macaca mulatta)
Procedure: In non-human primates (rhesus monkeys) RAP-103 was dosed once on Day 1 by intravenous bolus injection at 1 mg/kg and plasma levels determined. […] Drug in plasma after a single IV dose (1 mg/Kg) was still measurable at anticipated therapeutic levels 96 hrs. post-dose in non-human primates as shown in FIG. 10B.

[2] = tested on: morphine-induced respiratory depression
[3] = type: in vivo, rats and guinea pigs
[4] = tested on: sucrose self-administration; test: Sucrose self-administration (FR and PR); type: in vivo, rat (male Sprague Dawley); conditions: RAP-103 1 mg/kg IP; P>0.05 vs saline
Description: (§1) Adult male Sprague Dawley (226-275 g) were purchased from Taconic Laboratories and maintained on a 12-hour/12-hour light/dark cycle with the lights off at 9:30 a.m. in a temperature- and humidity-controlled animal care facility. For the duration of the experiment, rats were housed two per cage and given unrestricted access to food and water at all times when in the home cage.
Progressive ratio (PR) schedules of drug delivery are used to determine the ‘motivational’ state of an animal and drug reinforcing efficacy. A progressive ratio (PR) schedule requires the subject to perform an increasing number of lever presses for the next successive presentation of a reinforcer (e.g., heroin or sucrose). […] BP is a dependent measure used to quantify the degree to which the subject will work to get the next administration of the drug which serves as a reinforcer in the self-administration paradigm. […]
Subjects were given access to self-administer sucrose pellets for 12-14 d for 2 h each day. […] All responses were recorded using the Med-Associates software. […]
Respiratory depression data were analyzed by two-way ANOVA (RAP-103 pretreatment×morphine treatment) followed by a Bonferroni's multiple comparison test. Physical dependence data were analyzed by a Student's t-test. […] SA PR challenge data were analyzed by a Student's t-test. […]

[5] = tested on: opioid-induced respiratory depression; test: Example 4: treatment of a subject prescribed a high level of opioids; type: in vivo, human; conditions: oral pill, concurrent with opioids
Description: A subject is prescribed a high level of opioids to treat a pain. The subject is concurrently administered RAP-103 to treat opioid-induced respiratory depression. RAP-103 is orally administered to the subject as a pill to treat the opioid-induced respiratory depression. After administration, the subject has no change in their respiratory rate and blood oxygen levels (e.g., maintains full respiratory function).

[6] = tested on: morphine physical dependence; test: Morphine physical dependence (naloxone-precipitated withdrawal signs); type: in vivo, rat (male Sprague Dawley)
Procedure: as §1
Rats were implanted (SC, flank area) with 75 mg morphine pellets that remained intact for 7 days. Beginning on the day of pellet implantation, rats received daily injections of saline or RAP-103 (0.001, 0.1 or 1 mg/kg, IP, delivered in […]) throughout chronic morphine exposure. On the test day, rats were transported to the testing room and allowed to acclimate for 60 min before naloxone hydrochloride (10 mg/kg, IP, delivered in a 1 ml/kg volume) was injected to precipitate withdrawal signs. Immediately after naloxone administration, rats were placed into individual observation boxes and observed for 60 min. A modified version of the Gellet-Holtzman scale was used to grade withdrawal signs. Wet dog shakes, teeth chattering, eye blinks, and paw tremor were evaluated as the number of qualitatively observed occurrences over the 60-min test time.
Respiratory depression data were analyzed by two-way ANOVA (RAP-103 pretreatment×morphine treatment) followed by a Bonferroni's multiple comparison test. Physical dependence data were analyzed by a Student's t-test. Self-administration (SA) time-course data for heroin and sucrose were analyzed by two-way ANOVA (RAP-103 treatment x day) followed by a Bonferroni's multiple comparison test. SA PR challenge data were analyzed by a Student's t-test. Protein and mRNA data were analyzed by two-way ANOVA (RAP-103 pretreatment x morphine treatment) followed by a Newman-Keuls post-hoc analysis. In all cases, P<0.05 was considered statistically significant.

[7] = RAP-103 1, 3 mg/kg IP in morphine-naïve rats vs saline, P>0.05
[8] = RAP-103 1 or 3 mg/kg IP 30 min before morphine 5 mg/kg SC, 60 min
[9] = RAP-103 only vs drug-naïve, P>0.05
[10] = RAP-103 0.001, 0.1 mg/kg IP, P>0.05, reduced trend

## D-Thr-D-Thr-D-Asn-D-Tyr-D-Thr [RAP-103]
Pain pathways
  monocyte infiltration: reduces
  spinal microglial activation: reduces
[1]; intravenous bolus 1 mg/kg
  AUC 0-T, male vs female: comparable in male and female monkeys
  Cmax, male vs female: comparable in male and female monkeys
[1]; males, 1 mg/kg, rhesus monkeys
  absolute bioavailability: 89%
[1]; non-human primates (Rhesus macaque), 1 mg/kg
  oral bioavailability: 88%
[1]; primates, 1 mg/kg
  oral bioavailability: > 88%
[1]; single IV dose 1 mg/kg, post-dose
  time drug in plasma still measurable at anticipated therapeutic levels: ≥ 96 h
[2]; RAP-103 1 mg/kg IP before morphine 5 mg/kg SC
  respiratory rate: abolished
[2]; RAP-103 3 mg/kg IP before morphine 5 mg/kg SC, 60 min, P<0.01
  cumulative respiratory rate: normalized the morphine-induced increase in respiratory rate
[2]; [7]
  SpO2, RAP-103 by itself: did not produce effects on SpO2
  respiratory rate, RAP-103 by itself: did not produce effects on respiratory rate
[2]; [8]
  oxygen saturation (FIGS. 1A-1B): prevented the deficit in oxygen saturation
  respiratory rate (FIGS. 2A-2B): prevented the increase in respiratory rate
[3]; IV or oral gavage, rats and guinea pigs (FIG. 10A)
  persistence at therapeutic levels in brain: at least 24 hrs
[3]; in vivo
  brain entry compared to plasma levels: preferentially enters the brain
CXCR4; RAP-103 1 mg/kg IP + morphine
  CXCR4 protein levels, VTA: did not alter morphine enhancement of CCR2 or CXCR4
CXCR4; [9]
  CXCR4 protein levels, NAC: did not display significantly different levels
  CXCR4 protein levels, VTA: not significantly different
[4]
  sucrose PR breakpoints: not significantly different
  sucrose-taking (FR-1 SA): not significantly different
[5]
  blood oxygen levels: no change
  respiratory rate: no change
CCR5; [9]
  CCR5 protein levels, NAC: did not display significantly different levels
  CCR5 protein levels, VTA: not significantly different
CCR5; RAP-103 pretreatment 1 mg/kg IP + morphine, P<0.05
  CCR5 protein levels, NAC: normalized morphine-induced deficits in CCR5 levels
CCR5; rats receiving RAP-103 vs drug-naïve, P<0.05
  CCR5 protein levels, PFC: lower CCR5 levels
GFAP mRNA; RAP-103/morphine exposure, P>0.05
  GFAP mRNA, PFC: significant changes in GFAP or IBA1 were not detected
GFAP mRNA; RAP-103 pretreatment + morphine, P<0.05
  GFAP gene expression, NAC: normalized the augmentation in GFAP gene expression
GFAP mRNA; RAP-103 pretreatment, morphine-naïve and morphine-treated rats, vs drug-naïve, P<0.05
  GFAP mRNA levels, VTA: significantly reduced GFAP mRNA levels
[6]; [10]
  naloxone-precipitated eye blinking: did not significantly impact
  naloxone-precipitated wet dog shakes: did not significantly impact
[6]; RAP-103 1 mg/kg IP daily, morphine 75 mg pellet 7 d, naloxone 10 mg/kg IP, P<0.01
  reduction of frequency of wet dog shakes: approximately 43%
[6]; RAP-103 1 mg/kg IP daily, morphine 75 mg pellet 7 d, naloxone 10 mg/kg IP, P<0.05
  reduction of frequency of eye blinking: approximately 59%
[6]; any dose of RAP-103
  paw tremor: not affected
  teeth chattering: not affected
CCR2; RAP-103 1 mg/kg IP + morphine
  CCR2 protein levels, VTA: did not alter morphine enhancement of CCR2
CCR2; RAP-103 by itself vs drug-naïve, P<0.05
  CCR2 protein levels, PFC: reduction in CCR2 protein levels
CCR2; [9]
  CCR2 protein levels, NAC: did not display significantly different levels
  CCR2 protein levels, VTA: not significantly different
CCR2; RAP-103 pretreatment 1 mg/kg IP + morphine, P<0.01
  CCR2 protein levels, NAC: normalized morphine-induced deficits in CCR2 levels
